Reference: the supplement of paper PMC10627819

What was measured:
[1] = tested on: B. subtilis 168; assay: fitness (endpoint OD595 vs no drug) (fraction); higher = more growth
Outline: (§1)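 Fitness compares growth at the stationary-phase transition with the robust mean of no-drug control wells, as a ratio of optical densities. The ratio is capped at 1. Wells of 384-well plates held 30 µl, or 55 µl for S. pneumoniae, inoculated at OD595 0.01. Readings at OD595 every 30 min for 14 h at 37 °C were corrected against the first reading.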

[2] = tested on: S. aureus DSM 20231; assay: as above
Outline: as §1

[3] = tested on: S. aureus Newman; assay: as above
Outline: as §1

[4] = tested on: S. pneumoniae D39V; assay: as above
Outline: as §1

[5] = tested on: B. subtilis 168; assay: Bliss interaction score (quartile over a dose matrix) (fitness difference); higher = more antagonism (negative = synergy)
Outline: (§2)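 Quartiles of the Bliss score were taken over technical, biological and donor/recipient replicates. That score is observed fitness minus the product of the single-drug fitness values, which were inferred from combination data. Fitness itself is OD595 at entry into stationary phase divided by the plate's robust no-drug mean, with a cap at 1.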

[6] = tested on: S. aureus DSM 20231; assay: as above
Outline: as §2

[7] = tested on: S. aureus Newman; assay: as above
Outline: as §2

[8] = tested on: S. pneumoniae D39V; assay: as above
Outline: as §2

[9] = first compound 0.0625 µg/mL, partner 0.0625 µg/mL
[10] = first compound 0.0625 µg/mL, partner 0.125 µg/mL
[11] = first compound 0.0625 µg/mL, partner 0.25 µg/mL
[12] = first compound 0.125 µg/mL, partner 0.0625 µg/mL
[13] = first compound 0.125 µg/mL, partner 0.125 µg/mL
[14] = first compound 0.125 µg/mL, partner 0.25 µg/mL
[15] = first compound 0.0312 µg/mL, partner 0.5 µg/mL, one replicate
[16] = first compound 0.0312 µg/mL, partner 1 µg/mL, one replicate
[17] = first compound 0.0625 µg/mL, partner 0.5 µg/mL, one replicate
[18] = first compound 0.0625 µg/mL, partner 1 µg/mL, one replicate
[19] = first compound 0.125 µg/mL, partner 0.5 µg/mL, one replicate
[20] = first compound 0.125 µg/mL, partner 1 µg/mL, one replicate
[21] = first compound 0.0625 µg/mL, partner 85.5 µg/mL
[22] = first compound 0.125 µg/mL, partner 85.5 µg/mL
[23] = first compound 0.125 µg/mL, partner 171 µg/mL
[24] = first compound 0.125 µg/mL, partner 342 µg/mL
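Wherever Bliss interaction score (quartile over a dose matrix) is given: first quartile when negative (synergy) and third quartile when positive (antagonism).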

## CCC[C@@H]1C[C@@H](C(=O)N[C@@H]([C@H]2O[C@H](SC)[C@H](O)[C@@H](O)[C@H]2O)[C@H](C)Cl)N(C)C1 [Clindamycin] + CC1=C\[C@@H](O)CC(=O)Cc2nc(co2)C(=O)N2CCC=C2C(=O)O[C@H](C(C)C)[C@H](C)/C=C/C(=O)NC\C=C\1 [Virginiamycin M1]
[1]; first compound 0.0039 µg/mL, partner 0.0625 µg/mL, one replicate
  fitness: 0.963
[1]; first compound 0.0039 µg/mL, partner 0.125 µg/mL, one replicate
  fitness: 0.94
[1]; first compound 0.0039 µg/mL, partner 0.25 µg/mL, one replicate
  fitness: 0.971
[1]; first compound 0.0078 µg/mL, partner 0.0625 µg/mL, one replicate
  fitness: 0.459
[1]; first compound 0.0078 µg/mL, partner 0.125 µg/mL, one replicate
  fitness: 0.881
[1]; first compound 0.0078 µg/mL, partner 0.25 µg/mL, one replicate
  fitness: 0.862
[1]; first compound 0.0156 µg/mL, partner 0.0625 µg/mL, one replicate
  fitness: 0.845
[1]; first compound 0.0156 µg/mL, partner 0.125 µg/mL, one replicate
  fitness: 0.923
[1]; first compound 0.0156 µg/mL, partner 0.25 µg/mL, one replicate
  fitness: 0.927
[1]; [9]
  fitness: 0.595
[1]; [10]
  fitness: 0.564
[1]; [11]
  fitness: 0.59
[1]; [12]
  fitness: 0.397
[1]; [13]
  fitness: 0.364
[1]; [14]
  fitness: 0.38
[1]; first compound 0.25 µg/mL, partner 0.0625 µg/mL
  fitness: 0.361
[1]; first compound 0.25 µg/mL, partner 0.125 µg/mL
  fitness: 0.357
[1]; first compound 0.25 µg/mL, partner 0.25 µg/mL
  fitness: 0.366
[2]; [15]
  fitness: 0.661
[2]; [16]
  fitness: 0.597
[2]; [9]
  fitness: 0.0867
[2]; [10]
  fitness: 0.0913
[2]; [11]
  fitness: 0.131
[2]; [17]
  fitness: 0.316
[2]; [18]
  fitness: 0.275
[2]; [12]
  fitness: 0.0395
[2]; [13]
  fitness: 0.0407
[2]; [14]
  fitness: 0.0815
[2]; [19]
  fitness: 0.067
[2]; [20]
  fitness: 0.121
[3]; first compound 0.0312 µg/mL, partner 0.0625 µg/mL
  fitness: 0.601
[3]; first compound 0.0312 µg/mL, partner 0.125 µg/mL
  fitness: 0.613
[3]; first compound 0.0312 µg/mL, partner 0.25 µg/mL
  fitness: 0.622
[3]; [15]
  fitness: 0.865
[3]; [16]
  fitness: 0.892
[3]; first compound 0.0312 µg/mL, partner 2 µg/mL, one replicate
  fitness: 0.769
[3]; [9]
  fitness: 0.303
[3]; [10]
  fitness: 0.321
[3]; [11]
  fitness: 0.296
[3]; [17]
  fitness: 0.702
[3]; [18]
  fitness: 0.728
[3]; first compound 0.0625 µg/mL, partner 2 µg/mL, one replicate
  fitness: 0.595
[3]; [12]
  fitness: 0.0641
[3]; [13]
  fitness: 0.0861
[3]; [14]
  fitness: 0.0756
[3]; [19]
  fitness: 0.491
[3]; [20]
  fitness: 0.475
[3]; first compound 0.125 µg/mL, partner 2 µg/mL, one replicate
  fitness: 0.276
[4]; first compound 0.0125 µg/mL, partner 0.5 µg/mL
  fitness: 0.735
[4]; first compound 0.0125 µg/mL, partner 1 µg/mL
  fitness: 0.726
[4]; first compound 0.0125 µg/mL, partner 2 µg/mL
  fitness: 0.669
[4]; first compound 0.015 µg/mL, partner 0.15 µg/mL, one replicate
  fitness: 0.978
[4]; first compound 0.015 µg/mL, partner 0.3 µg/mL, one replicate
  fitness: 0.911
[4]; first compound 0.015 µg/mL, partner 0.5 µg/mL, one replicate
  fitness: 0.877
[4]; first compound 0.015 µg/mL, partner 1 µg/mL, one replicate
  fitness: 0.838
[4]; first compound 0.015 µg/mL, partner 2 µg/mL
  fitness: 0.806
[4]; first compound 0.025 µg/mL, partner 0.5 µg/mL
  fitness: 0.496
[4]; first compound 0.025 µg/mL, partner 1 µg/mL
  fitness: 0.471
[4]; first compound 0.025 µg/mL, partner 2 µg/mL
  fitness: 0.428
[4]; first compound 0.03 µg/mL, partner 0.15 µg/mL, one replicate
  fitness: 0.838
[4]; first compound 0.03 µg/mL, partner 0.3 µg/mL, one replicate
  fitness: 0.82
[4]; first compound 0.03 µg/mL, partner 0.5 µg/mL, one replicate
  fitness: 0.79
[4]; first compound 0.03 µg/mL, partner 1 µg/mL, one replicate
  fitness: 0.652
[4]; first compound 0.03 µg/mL, partner 2 µg/mL
  fitness: 0.699
[4]; first compound 0.05 µg/mL, partner 0.5 µg/mL
  fitness: 0.243
[4]; first compound 0.05 µg/mL, partner 1 µg/mL
  fitness: 0.217
[4]; first compound 0.05 µg/mL, partner 2 µg/mL
  fitness: 0.15
[4]; first compound 0.06 µg/mL, partner 0.15 µg/mL, one replicate
  fitness: 0.736
[4]; first compound 0.06 µg/mL, partner 0.3 µg/mL, one replicate
  fitness: 0.695
[4]; first compound 0.06 µg/mL, partner 0.5 µg/mL, one replicate
  fitness: 0.703
[4]; first compound 0.06 µg/mL, partner 1 µg/mL, one replicate
  fitness: 0.574
[4]; first compound 0.06 µg/mL, partner 2 µg/mL
  fitness: 0.624
[5]
  Bliss interaction score: -0.0417
[6]
  Bliss interaction score: -0.0802
[7]
  Bliss interaction score: -0.0298
[8]
  Bliss interaction score: -0.0639

## CCC[C@@H]1C[C@@H](C(=O)N[C@@H]([C@H]2O[C@H](SC)[C@H](O)[C@@H](O)[C@H]2O)[C@H](C)Cl)N(C)C1 [Clindamycin] + CCN(CC)CCOC(=O)c1ccc(N)cc1 [Procaine]
[1]; first compound 0.0039 µg/mL, partner 85.5 µg/mL, one replicate
  fitness: 0.941
[1]; first compound 0.0039 µg/mL, partner 171 µg/mL, one replicate
  fitness: 0.931
[1]; first compound 0.0039 µg/mL, partner 342 µg/mL, one replicate
  fitness: 0.931
[1]; first compound 0.0078 µg/mL, partner 85.5 µg/mL, one replicate
  fitness: 0.866
[1]; first compound 0.0078 µg/mL, partner 171 µg/mL, one replicate
  fitness: 0.838
[1]; first compound 0.0078 µg/mL, partner 342 µg/mL, one replicate
  fitness: 0.788
[1]; first compound 0.0156 µg/mL, partner 85.5 µg/mL, one replicate
  fitness: 0.798
[1]; first compound 0.0156 µg/mL, partner 171 µg/mL, one replicate
  fitness: 0.814
[1]; first compound 0.0156 µg/mL, partner 342 µg/mL, one replicate
  fitness: 0.856
[1]; [21]
  fitness: 0.504
[1]; first compound 0.0625 µg/mL, partner 171 µg/mL
  fitness: 0.483
[1]; first compound 0.0625 µg/mL, partner 342 µg/mL
  fitness: 0.506
[1]; [22]
  fitness: 0.363
[1]; [23]
  fitness: 0.362
[1]; [24]
  fitness: 0.367
[1]; first compound 0.25 µg/mL, partner 85.5 µg/mL
  fitness: 0.344
[1]; first compound 0.25 µg/mL, partner 171 µg/mL
  fitness: 0.335
[1]; first compound 0.25 µg/mL, partner 342 µg/mL
  fitness: 0.339
[2]; [21]
  fitness: 0.196
[2]; [22]
  fitness: 0.0583
[2]; [23]
  fitness: 0.0591
[2]; [24]
  fitness: 0.0589
[3]; first compound 0.0312 µg/mL, partner 85.5 µg/mL
  fitness: 0.706
[4]; first compound 0.0125 µg/mL, partner 85.5 µg/mL
  fitness: 0.772
[4]; first compound 0.0125 µg/mL, partner 171 µg/mL
  fitness: 0.723
[4]; first compound 0.0125 µg/mL, partner 342 µg/mL
  fitness: 0.746
[4]; first compound 0.015 µg/mL, partner 85.5 µg/mL, one replicate
  fitness: 0.916
[4]; first compound 0.015 µg/mL, partner 171 µg/mL, one replicate
  fitness: 0.956
[4]; first compound 0.015 µg/mL, partner 342 µg/mL, one replicate
  fitness: 0.806
[4]; first compound 0.025 µg/mL, partner 85.5 µg/mL
  fitness: 0.517
[4]; first compound 0.025 µg/mL, partner 171 µg/mL
  fitness: 0.472
[4]; first compound 0.025 µg/mL, partner 342 µg/mL
  fitness: 0.466
[4]; first compound 0.03 µg/mL, partner 85.5 µg/mL, one replicate
  fitness: 0.713
[4]; first compound 0.03 µg/mL, partner 171 µg/mL, one replicate
  fitness: 0.766
[4]; first compound 0.03 µg/mL, partner 342 µg/mL, one replicate
  fitness: 0.716
[4]; first compound 0.05 µg/mL, partner 85.5 µg/mL
  fitness: 0.205
[4]; first compound 0.05 µg/mL, partner 171 µg/mL
  fitness: 0.186
[4]; first compound 0.05 µg/mL, partner 342 µg/mL
  fitness: 0.19
[4]; first compound 0.06 µg/mL, partner 85.5 µg/mL, one replicate
  fitness: 0.349
[4]; first compound 0.06 µg/mL, partner 171 µg/mL, one replicate
  fitness: 0.513
[4]; first compound 0.06 µg/mL, partner 342 µg/mL, one replicate
  fitness: 0.373
[5]
  Bliss interaction score: -0.067
[6]
  Bliss interaction score: -0.0363
[7]
  Bliss interaction score: 0.0552
[8]
  Bliss interaction score: -0.11
